Laboratory results reported in paper PMC11819763, “Activity of Potassium Channel BmK-NSPK Inhibitor Regulated by Basic Amino Acid Residues: Novel Insight into the Diverse Peptide Pharmacology” (Molecules, 2025).
Positions of bridges follow the written chain, without caps; N, C: chain ends. Residues, ends and D or L forms follow the SMILES beside them.

Assays:
[1] = test system: hKv1.3-M1 channel (turret domain of hKv1.3 substituted by hKv1.2 region); experiment: Whole-cell patch clamp, chimeric hKv1.3-M1 channel currents; type: cell-based, human; conditions: mean ± SE, n ≥ 3, SEM
Experimental: In order to further investigate the effect of basic residue number on BmK-NSPK pharmacology, the activities of BmK-NSPK analogs were also tested on the Kv1.3 channel chimeras in this work. […] Based on the weak inhibition potencies of BmK-NSPK-7K and BmK-NSPK-8K towards hKv1.2 channel (Figure 5C,D), the work first constructed the chimeric hKv1.3-M1, in which the turret domain of hKv1.3 channel was substituted by the equivalent region of hKv1.2 channel (Figure 6A). Pharmacological experiments with 100 nM and 1 μM MeuKTX were able to inhibit 45.7 ± 7.9% and 82.8 ± 6.1% of hKv1.3-M1 channel currents, respectively (Figure 6B).
(§1) The pRc/CMV-hKv1.3 was kindly provided by Professor Stephan Grissmer (University of Ulm, Ulm, Germany) and Professor Olaf Pongs (Zentrum für Molekulare Neurobiologie der Universität Hamburg, Hamburg, Germany). The cDNAs encoding hKv1.1 and hKv1.2 (from Professor Stephan Grissmer, University of Ulm, Ulm, Germany) were subcloned into the vector pIRES2-EGFP (TaKaRa Clontech, Mountain View, CA, USA). The cDNAs encoding hKv1.6 were subcloned into the vector pcDNA 3.1(+) (TaKaRa Clontech, Mountain View, CA, USA). A QuikChange Site-Directed Mutagenesis Kit (Stratagene, La Jolla, CA, USA) was used to produce the mutants based on the wild-type hKv1.3 channel plasmids. All plasmids and their mutants were verified by DNA sequencing before the expression. The three channel chimeras were, respectively, named by hKv1.3-M1 (425DPTSGFS432 → 425ERESQFP432), hKv1.3-M2 (452HPV456 → 452VPT456) and hKv1.3-M3 (425DPTSGFS432 → 425ERESQFP432, 452HPV456 → 452VPT456).
(§2) In a 5% CO2 incubator at 37 °C, HEK293T cells were cultured in DMEM medium (Gibco, Grand Island, NY, USA) supplemented with 10% fetal bovine serum and 1% penicillin/streptomycin. Potassium channel plasmids and pEGFP-N1 were co-transfected into the HEK293 cells using the ExFect Transfection Reagent (Vazyme, Nanjin, China). After one day of transfection, the potassium currents were recorded, and the positive cells were selected based on the presence of GFP fluorescence.
(§3) Whole-cell current measurement and data acquisition were performed using an EPC-10 patch-clamp amplifier controlled by Pulse (HEKA Elektronik, Lambrecht, Germany). The potassium currents were recorded according to the recording protocol for the Kv1 channel, as described in previously published references. Peptides were dissolved in an external solution containing 0.01% BSA for electrophysiological experiments. The patch pipette solution contained 140 mM KF (Sigma, St. Louis, MC, USA), 2 mM MgCl2 (Sinopharm Chemical Reagent Co., Ltd., Shanghai, China), 1 mM EGTA (Sigma) and 10 mM HEPES (neoFroxx, Einhausen, Hessen, Germany) (pH adjusted to 7.4 with KOH (Sinopharm Chemical Reagent Co., Ltd., Shanghai, China)), and the bath solution contained 4.5 mM KCl, 160 Mm NaCl (Sinopharm Chemical Reagent Co., Ltd., Shanghai, China), 5 mM HEPES, 2 mM CaCl2 (Sinopharm Chemical Reagent Co., Ltd., Shanghai, China) and 1 mM MgCl2 (pH adjusted to 7.4 with NaOH (Sinopharm Chemical Reagent Co., Ltd., Shanghai, China)).
(§4) Graphing and data analysis were conducted using GraphPad Prism software (Version 8.0, San Diego, CA, USA), ClampFit software (version 10.2, Molecular Devices, Sunnyvale, CA, USA), and SigmaPlot software (version 12.0, IBM SPSS, Chicago, IL, USA). The dose–response relationship between the channel current and peptide inhibition was modeled by the modified Hill equation: Ipeptide/Icontrol = 1/{1 + [peptide]/IC50}, where Ipeptide represents the potassium current under peptide inhibition, Icontrol represents the peak current, IC50 is the half-maximal inhibition concentration and [peptide] represents the peptide concentration. The IC50 was obtained by fitting the Hill equation. Results are presented as mean ± SE, with each sample tested on at least three cells (n ≥ 3).

[2] = test system: hKv1.1 channel; experiment: Whole-cell patch clamp, hKv1.1 channel currents; type: cell-based, human; conditions: 1 μM peptide, mean ± SE, n ≥ 3, SEM
Excerpt: as §1, §2
(§5) Whole-cell current measurement and data acquisition were performed using an EPC-10 patch-clamp amplifier controlled by Pulse (HEKA Elektronik, Lambrecht, Germany). The potassium currents were recorded according to the recording protocol for the Kv1 channel, as described in previously published references. Peptides were dissolved in an external solution containing 0.01% BSA for electrophysiological experiments. […]

[3] = test system: hKv1.6 channel; experiment: Whole-cell patch clamp, hKv1.6 channel currents; type: cell-based, human; conditions: 1 μM peptide, mean ± SE, n ≥ 3, SEM
Excerpt: as §1, §2, §5

[4] = test system: hKv1.3-M2 channel (filter region of hKv1.3 substituted by hKv1.2 region); experiment: Whole-cell patch clamp, chimeric hKv1.3-M2 channel currents; type: cell-based, human; conditions: mean ± SE, n ≥ 3, SEM
Experimental: Apart from the chimeric hKv1.3-M1, this work further constructed the chimeric hKv1.3-M2 channel, in which the filter region of hKv1.3 channel was substituted by the equivalent region of hKv1.2 channel (Figure 6A). Pharmacological experiments 100 nM and 1 μM MeuKTX were able to inhibit 78.3 ± 4.9% and 95.9 ± 1.3% of hKv1.3-M2 channel currents, respectively, which indicated the minor effect of channel filter region on MeuKTX binding (Figure 6B). However, more significant effects were also observed for BmK-NSPK analogs with different numbers of basic residues.
as §1, §2, §3, §4

[5] = test system: hKv1.2 channel; experiment: Whole-cell patch clamp, hKv1.2 channel currents; type: cell-based, human; conditions: 1 μM peptide, mean ± SE, n ≥ 3, SEM
Excerpt: as §1, §2, §5

[6] = test system: hKv1.3-M3 channel (turret, pore helix and filter region of hKv1.3 replaced by hKv1.2 regions); experiment: Whole-cell patch clamp, chimeric hKv1.3-M3 channel currents; type: cell-based, human; conditions: mean ± SE, n ≥ 3, SEM
Excerpt: as §1, §2, §3, §4

[7] = biological target: T1, hKv1.3 channel (Homo sapiens, UniProt P22001); experiment: Whole-cell patch clamp, hKv1.3 channel currents in HEK293T cells; type: cell-based; conditions: from IC50 values on hKv1.3 channel
T1 construct: expressed in transfected cells; host or cells: HEK293T cells, co-transfected with pEGFP-N1
Excerpt: In order to verify the differential pharmacological activities between BmK-NSPK, MeuKTX, KTX-2 and KTX-3, their recombinant peptides were produced according to our previous procedure. […] Then, MALDI-TOF-MS was further used to analyze BmK-NSPK. The determined molecular mass was […], which well corresponds to its calculated value of 3659.8 Da. The circular dichroism (CD) spectra also indicated the overall similarity to the secondary structures between BmK-NSPK, MeuKTX, KTX-2 and KTX-3 peptides. […] Subsequently, the patch clamp technique was used to characterize the pharmacological activities of BmK-NSPK, MeuKTX, KTX-2 and KTX-3 peptides according to our previously described procedure. […]
as §2, with “Potassium channel plasmids and pEGFP-N1 were co-transfected into the HEK293 cells using the ExFect Transfection Reagent (Vazyme, Nanjin, China).” left out
as §5, with “references.” for “references. Peptides were dissolved in an external solution containing 0.01% BSA for electrophysiological experiments.”

T1 sequence (P22001 whole entry): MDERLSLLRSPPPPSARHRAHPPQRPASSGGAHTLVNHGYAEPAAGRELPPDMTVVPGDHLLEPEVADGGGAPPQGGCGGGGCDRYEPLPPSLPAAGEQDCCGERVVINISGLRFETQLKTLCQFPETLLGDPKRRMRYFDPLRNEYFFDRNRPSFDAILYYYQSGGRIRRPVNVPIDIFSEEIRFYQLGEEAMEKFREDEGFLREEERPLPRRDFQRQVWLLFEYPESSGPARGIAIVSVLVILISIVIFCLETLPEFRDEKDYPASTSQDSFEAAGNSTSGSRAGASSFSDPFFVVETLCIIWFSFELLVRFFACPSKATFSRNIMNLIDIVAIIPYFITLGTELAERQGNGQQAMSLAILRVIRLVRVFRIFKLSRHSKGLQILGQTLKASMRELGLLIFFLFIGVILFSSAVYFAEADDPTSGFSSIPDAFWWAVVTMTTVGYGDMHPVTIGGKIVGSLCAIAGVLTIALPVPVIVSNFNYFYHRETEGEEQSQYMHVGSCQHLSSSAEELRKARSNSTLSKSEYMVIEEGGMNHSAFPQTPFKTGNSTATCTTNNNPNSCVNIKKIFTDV

Structure (SMILES): CSCC[C@@H]1NC(=O)CNC(=O)[C@H](C)NC(=O)[C@H](CC(=O)O)NC(=O)[C@H](CCCCN)NC(=O)[C@@H]2CSSC[C@@H](C(=O)N[C@H](C(=O)N3CCC[C@H]3C(=O)N[C@@H](CCCCN)C(=O)NCC(=O)O)[C@@H](C)O)NC(=O)[C@H](CC(=O)O)NC(=O)[C@@H]3CSSC[C@H](NC(=O)[C@H](CCC(N)=O)NC(=O)CNC(=O)[C@H](CO)NC(=O)[C@H](Cc4c[nH]cn4)NC(=O)[C@H](CCCCN)NC(=O)[C@@H](NC(=O)[C@H](CCCCN)NC(=O)[C@@H](NC(=O)[C@H](CC(N)=O)NC(=O)[C@H](CCCCN)NC(=O)CNC(=O)[C@@H](N)C(C)C)C(C)C)CSSC[C@H](NC(=O)[C@H](CCCCN)NC(=O)CNC(=O)[C@H](Cc4ccccc4)NC(=O)[C@H](CCCNC(=N)N)NC1=O)C(=O)N[C@@H](CCSC)C(=O)N[C@@H](CC(N)=O)C(=O)NCC(=O)N[C@@H](CCCCN)C(=O)N3)C(=O)N[C@@H](CC(C)C)C(=O)N[C@@H](CCCCN)C(=O)N1CCC[C@H]1C(=O)N2 [BmK-NSPK-8K] (H-VGKNVKCKHSGQCLKPCKDAGMRFGKCMNGKCDCTPKG-OH; disulfide 7-27, 13-32, 17-34 (inferred); N-terminus and C-terminus assumed)
- inhibition of hKv1.3-M1 channel currents ([1]; 100 nM peptide): 4.5 ± 1.2%
- inhibition of hKv1.3-M1 channel currents ([1]; 1 μM peptide): 27.7 ± 4.0%
- inhibition of hKv1.1 channel currents [2]: 84.3 ± 1.8%
- inhibition of hKv1.6 channel currents [3]: 34.1 ± 4.8%
- inhibition of hKv1.3-M2 channel currents ([4]; 100 nM peptide): 8.8 ± 2.6%
- inhibition of hKv1.3-M2 channel currents ([4]; 1 μM peptide): 51.3 ± 1.5%
- inhibition of hKv1.2 channel currents [5]: 12.3 ± 1.8%
- inhibition of hKv1.3-M3 channel currents ([6]; 100 nM peptide): 2.7 ± 0.92%
- inhibition of hKv1.3-M3 channel currents ([6]; 1 μM peptide): 5.1± 1.4%
- fold decreased activity on hKv1.3 compared with BmK-NSPK-7K [7]: ~ 10 fold
